Assay results published in US20080187508A1, “Treatment of Golmerular Basement Membrane Disease Involving Matrix Metalloproteinase-12” (BOYS TOWN NATIONAL RESEARCH HOSPITAL, priority 2004, published 2008).
Entries after “also recorded” stand apart in the source; their conditions may differ.

Key:
[1] = test system: Alport mice; test: transmission electron microscopy of glomerular basement membrane of treated Alport mice; assay type: in vivo, mouse
Method: The Alport mouse model has been described (Cosgrove et al. (1996) Genes Dev. 10, 2981-2992). The control mice used were normal for both collagen α3(IV) alleles, and are a product of double heterozygote crosses for the Alport mutation. The use of animals in this study was performed in accordance with an approved institutional IACUC protocol. Extreme care was taken to minimize pain and discomfort suffered by the mice. MMP inhibitors were administered between 4 and 7 weeks of age. All drugs were freshly prepared prior to administration. BAY 129566 was emulsified in suspension with 0.5% carboxymethyl cellulose and 4 mg given once a day by oral gavage. MMI-270 was solubilized in 0.9% saline and administered by I.P. injection (50 μg/g body weight) once a day. Transmission electron microscopy was performed as previously described (Cosgrove et al., 1996, Genes Dev. 10, 2981-2992). Ultrastructural localization studies of type IV collagen were performed essentially as previously described (Bhattacharya et al., 2002). Kidneys from 7-week-old control and Alport mice were fixed by heart perfusion with 2% paraformaldehyde in PBS, and post-fixed in this same solution overnight. Ultrathin (70 nm) sections were reacted for 4 hours at room temperature with goat anti-collagen IV antibodies (Southern Biotechnology, Birmingham, Ala.). After six 10 minute washes in PBS, specimen were reacted for 2 hours at room temperature with 10 nanometers (nm) gold-conjugated anti-rabbit antibodies (Vector Laboratories, Burlingame, Calif.). Grids were washed as before, air-dried, counterstained with uranyl acetate, and examined using transmission electron microscopy. Propagermanium (3-oxygemylpropinic acid polymer, Sanwa Kagaku Kenkyusho Co., Nagoya, Japan) was administered orally (10 milligrams per kilogram (mg/kg) in 1% gelatin) by gavage once daily starting at 5 weeks of age, and kidneys harvested at 7 weeks of age. Three animals per group, Alport mice and control litter mates, gavaged with drug or vehicle only, were analyzed. […] Proteolytic degradation of the GBM in Alport syndrome might underlie the progressive irregular GBM damage and podocyte foot process effacement. Type IV collagen from Alport kidneys is more susceptible to proteolytic degradation in vitro than type IV collagen from healthy kidneys (Kalluri et al. (1997) J. Clin. Invest. 99, 2470-2478, presumably owing to the reduced number of interchain disulfide crosslinks (Gunwar et al. (1998) J. Biol. Chem. 273, 8767-8775).

[2] = test system: MMP-3 mRNA; test: real time PCR of glomerular RNA of propagermanium-treated Alport mice: MMP-3; assay type: in vivo, mouse; conditions: propagermanium 10 mg/kg oral gavage once daily from 5 to 7 weeks of age
Method: (§1) Isolation of mouse glomeruli was performed as described by Takemoto et al., (Am. J. Pathol. (2002)161, 799-805). The procedure involves cardiac perfusion with deactivated […] Dynabeads (Dynal Biotech, Oslo, Sweden), followed by collagenase digestion and glomerular isolation using a magnet.
(§2) Total RNA samples were treated with RNase-free DNase I (Gibco BRL, USA) at 37° C. for 1 hour (hr) in order to remove any contaminating genomic DNA before reverse transcription (RT). Total RNA was reverse-transcribed by using Superscript II (GIBCO BRL) with oligo dt primers. To ensure that the quantitation of MMP transcripts in serial samples was not affected by differences in the amount of RNA added, integrity of RNA, or sample to sample differences in levels of RT-PCR inhibition, an internal control reaction targeting the GAPDH gene was run in multiplex with each reaction, and used to normalize results for MMP transcripts. […] The data were analyzed using comparative threshold cycle (CT) method. The mRNA quantity for the control is expressed as 1× sample and all other quantities from Alport samples are expressed as fold difference relative to the controls. No measurable fluorescence signal was detected in repeated RT-PCR runs in which the reverse transcriptase was omitted from the reaction mixture. […]

[3] = test system: MMP-9 mRNA; test: real time PCR of glomerular RNA of propagermanium-treated Alport mice: MMP-9; assay type: in vivo, mouse; conditions: propagermanium 10 mg/kg oral gavage once daily from 5 to 7 weeks of age
Method: as §1, §2

[4] = test system: MMP-12 mRNA; test: real time PCR of glomerular RNA of propagermanium-treated Alport mice: MMP-12; assay type: in vivo, mouse; conditions: propagermanium 10 mg/kg oral gavage once daily from 5 to 7 weeks of age, 50-fold in vehicle-treated
Method: as §1, §2

[5] = target: MMP-12 (Homo sapiens, UniProt P39900); conditions: listed as BAY-12-9566; cited from earlier work
Chain of MMP-12 (P39900 106-470, species assumed): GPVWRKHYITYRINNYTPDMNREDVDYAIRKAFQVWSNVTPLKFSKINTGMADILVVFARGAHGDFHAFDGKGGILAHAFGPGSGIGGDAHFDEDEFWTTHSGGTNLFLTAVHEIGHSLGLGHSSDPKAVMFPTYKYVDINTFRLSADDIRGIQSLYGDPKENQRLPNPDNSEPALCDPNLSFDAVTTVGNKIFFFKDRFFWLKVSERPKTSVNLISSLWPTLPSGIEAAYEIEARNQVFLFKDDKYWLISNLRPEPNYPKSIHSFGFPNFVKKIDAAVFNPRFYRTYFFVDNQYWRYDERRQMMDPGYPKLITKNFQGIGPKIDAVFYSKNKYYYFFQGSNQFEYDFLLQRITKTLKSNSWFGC

[6] = target: MMP-14 (Homo sapiens, UniProt P50281); conditions: listed as BAY 129566; cited from earlier work
[7] = target: MMP-3 (Homo sapiens, UniProt P08254); conditions: listed as BAY 129566; cited from earlier work
Chain of MMP-3 (P08254 100-477, species assumed): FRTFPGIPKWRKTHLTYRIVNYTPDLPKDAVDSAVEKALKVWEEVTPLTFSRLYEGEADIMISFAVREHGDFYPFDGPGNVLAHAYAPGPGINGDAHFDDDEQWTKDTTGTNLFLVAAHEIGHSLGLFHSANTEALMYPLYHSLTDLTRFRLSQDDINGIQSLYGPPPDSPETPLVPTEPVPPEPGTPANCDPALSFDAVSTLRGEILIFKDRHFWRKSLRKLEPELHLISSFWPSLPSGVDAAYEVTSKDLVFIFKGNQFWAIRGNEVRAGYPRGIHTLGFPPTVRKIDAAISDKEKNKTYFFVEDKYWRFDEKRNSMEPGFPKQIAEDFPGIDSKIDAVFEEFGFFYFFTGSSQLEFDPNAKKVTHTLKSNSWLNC

[8] = target: MMP-9 (Homo sapiens, UniProt P14780); conditions: listed as BAY 129566; cited from earlier work
Chain of MMP-9 (P14780 94-707, species assumed): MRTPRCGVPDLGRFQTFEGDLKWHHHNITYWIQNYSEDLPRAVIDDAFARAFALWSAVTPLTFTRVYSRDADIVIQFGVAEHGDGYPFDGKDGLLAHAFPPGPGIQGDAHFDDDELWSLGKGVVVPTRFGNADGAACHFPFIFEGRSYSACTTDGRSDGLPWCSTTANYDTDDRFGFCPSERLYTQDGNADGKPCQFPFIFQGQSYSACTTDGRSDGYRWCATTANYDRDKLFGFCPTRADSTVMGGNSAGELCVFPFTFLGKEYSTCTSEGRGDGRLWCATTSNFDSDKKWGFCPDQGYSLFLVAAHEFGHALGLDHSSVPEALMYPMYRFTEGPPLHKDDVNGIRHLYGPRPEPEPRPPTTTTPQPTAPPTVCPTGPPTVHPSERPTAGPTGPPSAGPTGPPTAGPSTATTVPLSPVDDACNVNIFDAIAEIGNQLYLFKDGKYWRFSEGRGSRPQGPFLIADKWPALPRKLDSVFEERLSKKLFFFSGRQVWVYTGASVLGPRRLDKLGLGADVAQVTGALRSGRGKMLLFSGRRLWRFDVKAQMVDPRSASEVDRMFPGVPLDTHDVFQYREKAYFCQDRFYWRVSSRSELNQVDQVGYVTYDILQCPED

[9] = test system: Alport mice; test: immunofluorescence of kidney cryosections (fibronectin, collagen IV α1/α2) of treated Alport mice; assay type: in vivo, mouse; conditions: Alport mice treated from 4 to 7 weeks of age; MMI-270 50 μg/g I.P., BAY 129566 4 mg once daily oral gavage; fibronectin and collagen IV α1/α2 immunostaining
Method: The Alport mouse model has been described (Cosgrove et al. (1996) Genes Dev. 10, 2981-2992). The control mice used were normal for both collagen α3(IV) alleles, and are a product of double heterozygote crosses for the Alport mutation. The use of animals in this study was performed in accordance with an approved institutional IACUC protocol. Extreme care was taken to minimize pain and discomfort suffered by the mice. MMP inhibitors were administered between 4 and 7 weeks of age. All drugs were freshly prepared prior to administration. BAY 129566 was emulsified in suspension with 0.5% carboxymethyl cellulose and 4 mg given once a day by oral gavage. MMI-270 was solubilized in 0.9% saline and administered by I.P. injection (50 μg/g body weight) once a day.
Cryosections ([…]) of kidneys from 7-week-old normal and Alport mice were air dried, fixed by immersion in ice cold acetone, and subjected to immunohistochemical staining analysis using antibodies specific for MMP-3 (rabbit polyclonal anti-human MMP-3, a gift from Dr. Z. Gunza-Smith, Miami, Fla., used at 1:200 dilution), MMP-12 (rabbit polyclonal antibody against mouse MMP-12, kindly provided by Yoshikatsu Kaneko, used at 1:100 dilution), type IV collagen α1/2 chains (rabbit polyclonal against mouse type IV collagen, Biodesign, Inc., Saco, Me., used at 1:200 dilution), fibronectin (rabbit polyclonal against human plasma fibronectin, Sigma Chemical Co., St. Louis, Mo., used at 1:200). Anti-CD31 antibodies were directly conjugated to Alexa 568 (Molecular Probes, Eugene Oreg.) and purchased from Immunotech (Marseille, France). […] Images were collected using a Cytovision Ultra Image analysis system interfaced with an Olympus BH-2 fluorescence microscope.
To assess the effect of these two compounds on Alport renal disease progression, Alport mice were administered either MMI 270 or BAY 129566 from 4 to 7 weeks of age. […] Cryosections were analyzed by immunofluorescence microscopy to assess for the degree of glomerular and tubulointerstitial damage using antibodies specific for collagen IV α1 and α2 chains, and fibronectin.

[10] = target: T1, MMP-2 (Homo sapiens, UniProt P08253); conditions: listed as BAY 129566; cited from earlier work
T1 sequence (P08253 110-660): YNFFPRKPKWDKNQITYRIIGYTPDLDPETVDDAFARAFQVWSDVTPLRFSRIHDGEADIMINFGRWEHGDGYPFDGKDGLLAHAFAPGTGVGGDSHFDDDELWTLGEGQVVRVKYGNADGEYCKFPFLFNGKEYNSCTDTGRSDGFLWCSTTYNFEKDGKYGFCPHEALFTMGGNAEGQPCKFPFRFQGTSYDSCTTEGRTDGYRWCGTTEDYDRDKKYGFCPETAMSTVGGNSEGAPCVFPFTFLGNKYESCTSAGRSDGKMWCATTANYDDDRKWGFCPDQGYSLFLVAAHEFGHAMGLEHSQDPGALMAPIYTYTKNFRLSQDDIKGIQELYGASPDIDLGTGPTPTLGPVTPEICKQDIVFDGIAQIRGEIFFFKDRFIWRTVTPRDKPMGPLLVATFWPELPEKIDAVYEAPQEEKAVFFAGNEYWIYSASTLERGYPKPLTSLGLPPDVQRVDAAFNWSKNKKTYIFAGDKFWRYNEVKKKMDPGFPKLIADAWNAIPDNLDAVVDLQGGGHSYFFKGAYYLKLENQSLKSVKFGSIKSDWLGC

[11] = test system: Alport mice; conditions: cited from earlier work

Compound: 3-oxygermylpropionic acid [propagermanium]
- glomerular basement membrane architecture ([1]; Alport mice, propagermanium 10 mg/kg oral gavage once daily from 5 to 7 weeks of age, transmission electron microscopy): restores normal GBM architecture
- induction of MMP-3 mRNA in glomeruli [2]: unaffected
- induction of MMP-9 mRNA in glomeruli [3]: unaffected
- MMP-12 mRNA induction in glomeruli relative to normal controls [4]: 6 fold

Compound: O=C(C[C@H](CSc1ccccc1)C(=O)O)c1ccc(-c2ccc(Cl)cc2)cc1 [BAY 12-9566]
- glomerular basement membrane architecture ([1]; Alport mice treated with MMP inhibitor from 4 to 7 weeks of age, electron microscopy): no effect
- MMP inhibitory effect, MMP-12 [5]: does not
- MMP inhibitory effect, MMP-14 [6]: inhibits
- MMP inhibitory effect, MMP-3 [7]: inhibits
- MMP inhibitory effect, MMP-9 [8]: inhibits
- glomerular and tubulointerstitial (renal) disease progression [9]: same degree of renal pathology as untreated Alport mice; also recorded: no obvious effect; also recorded: did not significantly affect; also recorded: no improvement
- MMP inhibitory effect, MMP-2 [10]: inhibits

Compound: CCOC(=O)[C@H](CCc1ccccc1)N[C@@H](C)C(=O)N1[C@H](C(=O)O)C[C@@H]2CCC[C@@H]21 [Ramipril]
- lifespan [11]: doubles
